Measurements: patent US20170318812A1, “Plant and Crop Growth Regulating/Biostimulant Formulations and Methods of Use” (Arysta Lifescience North America, LLC, priority 2014, published 2017)
Several values for one entry are separate records, joined by “and”; a condition that tells them apart may be missing. Equal entries are not always repeated.

Experiments:
Format in all cases: in vivo
[1] = system: PHSVX Phaseolus vulgaris (Garden bean); assay: Ipfencarbazone biostimulant effect, early post emergence foliar application, greenhouse pots, plant height: dry bean; details: PHSVX PEROLA
Source text: (§1) The original objective of this Example was to evaluate the herbicidal effect of ipfencarbazone when applied as a post emergent treatment to a range of selected crops and weeds. Unexpectedly, crop plant growth stimulation was observed. The actual species of weeds and crops are listed in the summary data tabulated below and in FIGS. 1-13. By convention each plant species has a Bayer code (5-letter name) with the scientific name for the plant referenced in FIGS. 1-13. In each Figure, each tray contains the same configuration of weeds and/or crops. In each Figure there is one replication of each treatment (six treatments in total). The top three photographs in each Figure show the Bayer Codes and bottom three photographs are aligned with the top three facilitating viewing of the same plant species. Throughout the Examples various abbreviations as conventional shorthand notation and will be appreciated by those skilled in the art. Some exemplary abbreviations include, “CV”=Co-efficient of Variation,” “LSD”=Least Significant Difference” (G/L (gram per L) AND GA/L (gram of active ingredient per L); “SC”=suspension concentrate formulation. The diluent in all treatments was water. By convention factors that are identical in all treatments (e.g. diluent and surfactant) are not listed in each treatment.
(§2) Methods: The indicated size pots (see Tables below) are filled with a specific soil, the soil properties being indicated below. The referenced crops and weeds are planted by hand in each pot. […] The experiments include six treatments each replicated three times on each crop/weed species. At a specific time after emergence each crop and weed species was treated with ipfencarbazone plus a non-ionic surfactant (NIS). In the present Example, the surfactant employed was ENERGIC™ (non-ionic surfactant). The application timing is indicated in each of the Tables (1 or 2 leaf stage) below. Ipfencarbazone plus surfactant was diluted in water and applied at a rate equivalent to about 250 L/ha. Ipfencarbazone was applied using a track sprayer. After treatment, the pots were randomized in a greenhouse. At each assessment (indicated by “days after treatment” or DAT) the height of each plant was measured. The letters next to each mean indicate the level of statistical significance.
(§3) Replications: 3, Untreated treatments: 1, Design: Randomized Complete Block (RCB), Treatment units: Treated ‘Plot’ experimental unit size, Dry Form. Unit: %, Treated ‘Plot’ experimental unit size Width: 1 meter, Treated ‘Plot’ experimental unit size Length: 1.4 meters, Application volume: 250 L/ha, Mix size: 0.15 liters, […]

[2] = system: GLXMA Glycine max (Soybean); assay: Ipfencarbazone biostimulant effect, early post emergence foliar application, greenhouse pots, plant height: soybean; details: for HEIGHT, percent of untreated check (APoC) / HEIGHT, treatment mean / HEIGHT, single plots (replicates): GLXMA BMXPOTENCIA; for Plant HEIGHT, Mean / Plant HEIGHT, single plots: Soybean BMXPOTENCIA
Source text: as §1, §2, §3

selected crops and weeds = assay: Post emergent treatment of a range of selected crops and weeds (FIGS. 1-13), measured and visual observation
Source text: as §1, §2

[3] = 500 g ai/ha, 15 DA-A, plots 105, 202, 301
[4] = 1000 g ai/ha, 15 DA-A, plots 106, 203, 304
[5] = 28 DA-A, 62.5 g ai/ha + Energic NIS 0.2 % v/v
[6] = 28 DA-A, 125 g ai/ha + Energic NIS 0.2 % v/v
[7] = 28 DA-A, 250 g ai/ha + Energic NIS 0.2 % v/v
[8] = 28 DA-A, 1000 g ai/ha + Energic NIS 0.2 % v/v

CC(C)N(C(=O)n1cnn(-c2ccc(Cl)cc2Cl)c1=O)c1ccc(F)cc1F [ARY-0572-001, ipfencarbazone]
HEIGHT, treatment mean ([1]; 500 g ai/ha, 15 DA-A): 0.7 c cm and 0.7 cm
HEIGHT, single plots (replicates) [1, 3]: 2.0 cm and 0.0 cm (2×)
HEIGHT, percent of untreated check (APoC) ([1]; 500 g ai/ha, 28 DA-A, AS square root transformation): (155.1%)
HEIGHT, treatment mean ([1]; 500 g ai/ha, 28 DA-A, AS square root transformation (t)): 20.2 a cm and 20.2t cm
HEIGHT, single plots (replicates) ([1]; 500 g ai/ha, 28 DA-A, plots 105, 202, 301): 73.0 cm and 0.0 cm and 25.0 cm
HEIGHT, percent of untreated check (APoC) ([1]; 1000 g ai/ha, 15 DA-A): (59.0%)
HEIGHT, treatment mean ([1]; 1000 g ai/ha, 15 DA-A): 5.8 b cm and 5.8 cm
HEIGHT, single plots (replicates) [1, 4]: 5.0 cm and 6.7 cm and 5.8 cm
HEIGHT, percent of untreated check (APoC) ([1]; 1000 g ai/ha, 28 DA-A, AS square root transformation): (51.7%)
HEIGHT, treatment mean ([1]; 1000 g ai/ha, 28 DA-A, AS square root transformation (t)): 6.7 a cm and 6.7t cm
HEIGHT, single plots (replicates) ([1]; 1000 g ai/ha, 28 DA-A, plots 106, 203, 304): 6.3 cm and 7.3 cm and 6.7 cm
HEIGHT, percent of untreated check (APoC) ([2]; 62.5 g ai/ha, 15 DA-A): (113.4%)
HEIGHT, treatment mean ([2]; 62.5 g ai/ha, 15 DA-A): 15.0 a cm and 15.0 cm
HEIGHT, single plots (replicates) ([2]; 62.5 g ai/ha, 15 DA-A, plots 102, 205, 302): 15.3 cm and 14.8 cm (2×)
HEIGHT, percent of untreated check (APoC) ([2]; 62.5 g ai/ha, 28 DA-A): (146.3%)
HEIGHT, treatment mean ([2]; 62.5 g ai/ha, 28 DA-A): 30.6a cm
HEIGHT, percent of untreated check (APoC) ([2]; 125 g ai/ha, 15 DA-A): (84.9%)
HEIGHT, treatment mean ([2]; 125 g ai/ha, 15 DA-A): 11.2 abc cm and 11.2 cm
HEIGHT, single plots (replicates) ([2]; 125 g ai/ha, 15 DA-A, plots 103, 206, 305): 6.2 cm and 13.5 cm and 14.0 cm
HEIGHT, percent of untreated check (APoC) ([2]; 125 g ai/ha, 28 DA-A): (113.8%)
HEIGHT, treatment mean ([2]; 125 g ai/ha, 28 DA-A): 23.8 ab cm
HEIGHT, percent of untreated check (APoC) ([2]; 250 g ai/ha, 15 DA-A): (71.8%)
HEIGHT, treatment mean ([2]; 250 g ai/ha, 15 DA-A): 9.5 bcd cm and 9.5 cm
HEIGHT, single plots (replicates) ([2]; 250 g ai/ha, 15 DA-A, plots 104, 201, 306): 8.3 cm and 10.8 cm and 9.3 cm
HEIGHT, percent of untreated check (APoC) ([2]; 250 g ai/ha, 28 DA-A): (87.8%)
HEIGHT, treatment mean ([2]; 250 g ai/ha, 28 DA-A): 18.3 bc cm
HEIGHT, percent of untreated check (APoC) ([2]; 500 g ai/ha, 15 DA-A): (45.4%)
HEIGHT, treatment mean ([2]; 500 g ai/ha, 15 DA-A): 6.0 d cm and 6.0 cm
HEIGHT, single plots (replicates) [2, 3]: 8.0 cm and 1.3 cm and 8.7 cm
HEIGHT, percent of untreated check (APoC) ([2]; 500 g ai/ha, 28 DA-A): (63.3%)
HEIGHT, treatment mean ([2]; 500 g ai/ha, 28 DA-A): 13.2 c cm
HEIGHT, percent of untreated check (APoC) ([2]; 1000 g ai/ha, 15 DA-A): (65.5%)
HEIGHT, treatment mean ([2]; 1000 g ai/ha, 15 DA-A): 8.7 cd cm and 8.7 cm
HEIGHT, single plots (replicates) [2, 4]: 6.7 cm and 10.0 cm and 9.3 cm
HEIGHT, percent of untreated check (APoC) ([2]; 1000 g ai/ha, 28 DA-A): (71.3%)
HEIGHT, treatment mean ([2]; 1000 g ai/ha, 28 DA-A): 14.9 bc cm
Plant HEIGHT, Mean [2, 5]: 30.6 cm
Plant HEIGHT, single plots [2, 5]: 32.7 cm and 29.3 cm and 29.7 cm
Plant HEIGHT, Mean [2, 6]: 23.8 cm
Plant HEIGHT, single plots [2, 6]: 20.7 cm and 22.7 cm and 28.0 cm
Plant HEIGHT, Mean [2, 7]: 18.3 cm
Plant HEIGHT, single plots [2, 7]: 20.3 cm and 21.7 cm and 13.0 cm
Plant HEIGHT, Mean ([2]; 28 DA-A, 500 g ai/ha + Energic NIS 0.2 % v/v): 13.2 cm
Plant HEIGHT, Mean [2, 8]: 14.9 cm
Plant HEIGHT, single plots [2, 8]: 9.0 cm and 18.0 cm and 17.7 cm
effect on crop plant seedlings (growth) (selected crops and weeds; about 60 to about 125 grams per hectare, corn, wheat, soybean and dry bean seedlings): positive effect
impact on plant growth (selected crops and weeds; applied post emergent, all crop and weed species evaluated, all use rates): significant, positive impact on plant growth
growth rate (biomass, leaf area, plant height) (selected crops and weeds; early post treatment, wheat, sorghum, corn, soybean, dry bean and cotton): meaningful increase in growth rate
herbicidal effect (selected crops and weeds; higher rates, 500 and 1000 g a.i./ha, specific crops and weeds): some herbicidal effect
plant color (visual observation) (selected crops and weeds; treated plants compared to the untreated control): significant greening effect
